Data set [1] deals with uterus. Put plainly: Anti-uterus growth test in the adult rat. The settings on record: sc, 72 h; ovariectomized adult rat, s.c. 3 days with 1.5 μg/kg/day 17β-estradiol; inhibition of uterus growth; value of 44 is a mean of two measurements; read-out: anti-oestrogenic activity in vivo in % at a dose of 0.3 mg/kg (rat). The source says: The uterus of oestrogen-substituted rats can be used as a test model for detecting a direct action of substances with anti-oestrogenic properties. The parameter of oestrogenic action is estradiol-induced uterus growth in rats, which is inhibited by simultaneous administration of a substance with anti-oestrogenic action. The experimental animals (n=5-6 animals/group) were ovariectomized before the start of the test, to rule out the influence of endogenous oestrogens. After a phase of 6 to 10 days, the test substances are administered s.c. on 3 consecutive days (d1-d3) in combination with a substitution dose of 1.5 μg/kg/day 17β-estradiol. 17β-estradiol alone serves as positive control, and the excipients serve as negative control. On day 4 (d4) the animals are killed, and the uteri and vaginae are removed and weighed. The organ weights are converted to mg/100 g body weight, then the mean value and the standard deviation are calculated for each dosage. The inhibition of uterus growth induced by 17β-estradiol is shown as percentage inhibition.

The target of a further data set is T1, oestrogen receptor (ER) (Homo sapiens, UniProt P03372).
T1 construct: These MVLN cells express, along with the functional oestrogen receptor (ER), a reporter construct; endogenous in cells; host or cells: MVLN cells (MCF7 derivative carrying a luciferase reporter construct)
T1 sequence (P03372 1-595): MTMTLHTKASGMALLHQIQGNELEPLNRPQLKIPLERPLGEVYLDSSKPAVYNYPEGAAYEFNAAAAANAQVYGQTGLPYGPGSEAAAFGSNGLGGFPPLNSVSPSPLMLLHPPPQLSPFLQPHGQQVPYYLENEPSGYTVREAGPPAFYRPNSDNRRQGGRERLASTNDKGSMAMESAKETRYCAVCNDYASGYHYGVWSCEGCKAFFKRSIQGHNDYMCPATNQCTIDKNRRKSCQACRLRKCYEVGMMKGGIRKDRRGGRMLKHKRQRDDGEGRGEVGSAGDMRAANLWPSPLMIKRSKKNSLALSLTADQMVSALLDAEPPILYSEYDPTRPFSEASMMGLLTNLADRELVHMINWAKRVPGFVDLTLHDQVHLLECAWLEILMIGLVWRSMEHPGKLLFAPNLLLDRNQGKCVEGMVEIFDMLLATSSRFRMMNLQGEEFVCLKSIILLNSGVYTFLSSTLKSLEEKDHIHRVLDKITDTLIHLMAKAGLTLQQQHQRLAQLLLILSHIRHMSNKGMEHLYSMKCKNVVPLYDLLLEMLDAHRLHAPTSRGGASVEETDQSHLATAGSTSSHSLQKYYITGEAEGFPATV
The data set is described as follows: Anti-oestrogenic action in MVLN cells (inhibition of estradiol-induced luciferase). In kind it is cell-based. To be noted: inhibition of estradiol-induced luciferase signal, value of Ex. 44 is a mean value, read-out: Antioestrogenic action in vitro: MVLN transactivation antagonism IC50. In outline: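 Inhibition of estradiol-driven luciferase expression was measured with compounds co-applied alongside oestrogen. Reporter system: MCF7-derived MVLN cells expressing endogenous functional ER and an ER-responsive luciferase construct.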

Data set [2] concerns uterus. Put plainly: Oestrogenic action - uterus growth test in the infantile rat. In kind it is in vivo. To be noted: sc, 72 h, s.c. 3 days, relative to E2 0.3 μg/animal, read-out: maximum uterotropic action (% estradiol action) in the dose range from 0.03 to 3 mg/kg; for Emax at 0.3 mg/kg: maximum at dose 0.3 mg/kg. The protocol: Both the uterus and the vagina show a weight increase that is dependent on oestrogenic efficacy, in infantile animals when they are treated with a substance with oestrogenic action. In the uterus, under oestrogenic action there is also proliferation and increase in height of the luminal epithelium.
Immature, intact rats (n=5-6 animals/group; body weight 40-50 g) receive the substance s.c. for 3 days (d1-d3). On day 4 (d4) the animals are killed with CO2. The uteri are removed and weighed. For histological assessment, a piece of uterus, preferably a uterine horn, is fixed in formaldehyde and embedded in paraffin. The stimulation of the organ weights (relative to mg/100 g body weight) and the height of the epithelium are shown as percentage stimulation in comparison with the reference compound 17β-estradiol (E2). (Substitution dose of E2 0.3 μg/animal).

For data set [3], the system named is ovarian estradiol synthesis. Put plainly: Stimulation of ovarian oestrogen synthesis (HPG axis) in intact adult rats. It counts as in vivo, rat. The settings on record: hormonally intact adult rats, daily for 10 days; quotient of peripheral estradiol values after and before treatment. An excerpt: The clinical use both of pure anti-oestrogens and of various SERMs for the treatment of premenopausal women is limited by their property of stimulating the ovaries through activation of the hypothalamic-pituitary-gonadal axis (HPG axis), which leads to the increase in peripheral estradiol levels (Palomba, S., Orio, F., Jr., Morelli, M., Russo, T., Pellicano, M., Zupi, E., Lombardi, G., Nappi, C., Panici, P. L., and Zullo, F. (2002). Raloxifene administration in premenopausal women with uterine leiomyomas: a pilot study. J Clin Endocrinol Metab 87, 3603-3608). This stimulation of the HPG axis is associated with penetration of the blood-brain barrier and penetration of the brain. To investigate the ovary-stimulating properties of the claimed pharmacological compounds, hormonally intact adult rats were treated with the substances daily for a period of 10 days. The study end point is the quotient of peripheral estradiol values after and before treatment.

Structures can show the parent of a compound that is named as a salt.

As for `CN(CCCCCCC1=C(c2ccc(F)c(F)c2)CCCc2cc(O)ccc21)CCCCS(=O)(=O)CCCC(F)(F)F` [Example 45, 8-(3,4-Difluorophenyl)-9-[6-(methyl{4-[(4,4,4-trifluorobutyl)sulphonyl]butyl}amino)hexyl]-6,7-dihydro-5H-benzo[7]annulen-3-ol], the inhibition in vivo at 0.3 mg/kg with uterus [1] was found to be 73%. Moreover, the IC50 on oestrogen receptor (ER) worked out at 0.02 µM.
For the compound `CN(CCCCCCC1=C(c2cc(F)cc(F)c2)CCCc2cc(O)ccc21)CCCCS(=O)(=O)CCC(F)(F)F` [Example 46, 8-(3,5-Difluorophenyl)-9-[6-(methyl{4-[(3,3,3-trifluoropropyl)sulphonyl]butyl}amino)hexyl]-6,7-dihydro-5H-benzo[7]annulen-3-ol], the inhibition in vivo at 0.3 mg/kg with uterus [1] came to 30%. At oestrogen receptor (ER), the IC50 worked out at 0.036 µM.
Consider `CN(CCCCCCC1=C(c2ccc(F)cc2)CCCc2cc(O)ccc21)CCCCS(=O)(=O)CCCC(F)(F)F` [Example 48, 8-(4-Fluorophenyl)-9-[6-(methyl{4-[(4,4,4-trifluorobutyl)sulphonyl]butyl}amino)hexyl]-6,7-dihydro-5H-benzo[7]annulen-3-ol], for which, in the data set on uterus [1], the inhibition in vivo at 0.3 mg/kg amounted to 79%. In addition, on oestrogen receptor (ER), the IC50 stood at 0.017 µM.
Take `CN(CCCCCCC1=C(c2ccc(F)cc2)CCCc2cc(O)ccc21)CCCCS(=O)(=O)CCC(F)(F)F` [Example 51, 8-(4-Fluorophenyl)-9-[6-(methyl{4-[(3,3,3-trifluoropropyl)sulphonyl]butyl}amino)hexyl]-6,7-dihydro-5H-benzo[7]annulen-3-ol]: in the data set on uterus [1], the inhibition in vivo at 0.3 mg/kg stood at 59%. The Emax at 0.1 mg/kg in the data set on uterus [2] (maximum at dose 0.1 mg/kg) came out at 22%. In addition, on oestrogen receptor (ER), the IC50 came out at 0.03 µM.
Turning to `CN(CCCCCCC1=C(c2ccc(F)cc2)CCCc2cc(O)ccc21)CCCS(=O)(=O)CCCCC(F)(F)F` [Example 80, 8-(4-Fluorophenyl)-9-[6-(methyl{3-[(5,5,5-trifluoropentyl)sulphonyl]propyl}amino)hexyl]-6,7-dihydro-5H-benzo[7]annulen-3-ol], in the data set on uterus [1], the inhibition in vivo at 0.3 mg/kg worked out at 59%. Also, in data set [3], the “Stimulation of ovarian oestrogen synthesis: factor at a dose of 3 mg/kg rat” value (“Stimulation” for short) was 2.3. In addition, on oestrogen receptor (ER), the IC50 is 0.008 µM.
In the same order, the values of `CN(CCCCCCC1=C(c2ccc(F)cc2)CCCc2cc(O)ccc21)CCCCS(=O)(=O)CCCC(F)(F)C(F)(F)F` [Example 114, 8-(4-fluorophenyl)-9-[6-(methyl{4-[(4,4,5,5,5-pentafluoropentyl)sulphonyl]butyl}amino)hexyl]-6,7-dihydro-5H-benzo[7]annulen-3-ol] are 49%, 1.4 and 0.01 µM.
Regarding `CN(CCCCCCC1=C(c2ccc(F)cc2)CCCc2cc(O)ccc21)CCCS(=O)(=O)CCC(F)(F)C(F)(F)F` [Example 116, 8-(4-fluorophenyl)-9-[6-(methyl{3-[(3,3,4,4,4-pentafluorobutyl)sulphonyl]propyl}amino)hexyl]-6,7-dihydro-5H-benzo[7]annulen-3-ol], the inhibition in vivo at 0.3 mg/kg in the data set with uterus [1] turned out to be 15%. Moreover, the IC50 on oestrogen receptor (ER) was found to be 0.034 µM.
In the case of `CN(CCCCCCC1=C(c2ccc(F)cc2)CCCc2cc(O)ccc21)CCCS(=O)(=O)CCCC(F)(F)F` [Example 117, 8-(4-fluorophenyl)-9-[6-(methyl{3-[(4,4,4-trifluorobutyl)sulphonyl]propyl}amino)hexyl]-6,7-dihydro-5H-benzo[7]annulen-3-ol], the inhibition in vivo at 0.3 mg/kg with uterus [1] was found to be 65%. Further, in the data set on uterus [2], the Emax at 0.3 mg/kg was determined as 18%. Also, the “Stimulation” value in data set [3] is 2.1. In addition, the half-inhibitory concentration (IC50) at oestrogen receptor (ER) stood at 0.018 µM.
On to `CN(CCCCCCC1=C(c2ccc(F)cc2)CCCc2cc(O)ccc21)CCCCS(=O)(=O)C1CCC(F)(F)CC1` [Example 122, 9-{6-[{4-[(4,4-difluorocyclohexyl)sulphonyl]butyl}(methyl)amino]hexyl}-8-(4-fluorophenyl)-6,7-dihydro-5H-benzo[7]annulen-3-ol], for which, in the data set on uterus [1], the inhibition in vivo at 0.3 mg/kg worked out at 52%. Besides, the Emax at 0.3 mg/kg in the data set with uterus [2] came to 7%. The “Stimulation” value in data set [3] amounted to 2.4. In addition, the IC50 at oestrogen receptor (ER) is 0.006 µM.
Taken in the same sequence, the figures for `CN(CCCCCCC1=C(c2ccc(F)cc2)CCCc2cc(O)ccc21)CCCS(=O)(=O)CC1CCC(F)(F)CC1` [Example 123, 9-{6-[(3-{[(4,4-difluorocyclohexyl)methyl]sulphonyl}propyl)(methyl)amino]hexyl}-8-(4-fluorophenyl)-6,7-dihydro-5H-benzo[7]annulen-3-ol] were 56%, 8%, 2.5 and 0.013 µM.
As to `CN(CCCCCCC1=C(c2cccc(F)c2)CCCc2cc(O)ccc21)CCCCS(=O)(=O)CCCC(F)(F)C(F)(F)F` [Example 124, 8-(3-fluorophenyl)-9-[6-(methyl{4-[(4,4,5,5,5-pentafluoropentyl)sulphonyl]butyl}amino)hexyl]-6,7-dihydro-5H-benzo[7]annulen-3-ol], in the data set with uterus [1], the inhibition in vivo at 0.3 mg/kg stood at 67%. Further, in data set [3], the “Stimulation” value was determined as 2.0. Also, the IC50 on oestrogen receptor (ER) was found to be 0.013 µM.
For `CN(CCCCCCC1=C(c2cccc(F)c2)CCCc2cc(O)ccc21)CCCS(=O)(=O)CCCC(F)(F)C(F)(F)F` [Example 125, 8-(3-fluorophenyl)-9-[6-(methyl{3-[(4,4,5,5,5-pentafluoropentyl)sulphonyl]propyl}amino)hexyl]-6,7-dihydro-5H-benzo[7]annulen-3-ol], in the data set on uterus [1], the inhibition in vivo at 0.3 mg/kg was 75%. In addition, the IC50 at oestrogen receptor (ER) was 0.013 µM.
As for `O=C(c1ccc(OCCN2CCCCC2)cc1)c1c(-c2ccc(O)cc2)sc2cc(O)ccc12` [Raloxifene hydrochloride, Raloxifene, reference compound], the “Stimulation” value in data set [3] is 3.1.

A word on the IC50: it is the concentration at which inhibition is half-maximal.

These data come from patent US20130252890A1, “6,7-DIHYDRO-5H-BENZO[7]ANNULENE DERIVATIVES, PROCESS FOR PREPARATION THEREOF, PHARMACEUTICAL PREPARATIONS COMPRISING THEM, AND THE USE THEREOF FOR PRODUCTION OF MEDICAMENTS” (BAYER INTELLECTUAL PROPERTY GMBH, priority 2010, published 2013).
